The results in this text go back to patent publication US20090311344A1, “Dosing Regimen” (priority 2008, published 2009).

The conditions of data set [1]: mouse, in vivo.
From the text: (§1) Animals were weighed daily for the first five days of the study and then twice weekly.
(§2) Animals were monitored for adverse treatment-related effects by frequent observation and body-weight (BW) measurements (data not shown).
In data set [2] the test system is HT-29 human colon carcinoma xenografts. Kind of data set: HT-29 human colon carcinoma xenografts in athymic nude mice: tumor growth delay. In kind it is in vivo. The source says:
Administration of the TPO Mimetic Peptide Compound One Hour After Administration of Carboplatin. Effect on activity and toxicity of carboplatin against HT-29 human colon carcinoma xenografts established in athymic nude mice.
Five groups (n=10) of female athymic nude mice (Harlan) bearing established (˜100 mm^3) HT-29 human colon carcinomas on Day 1. Groups 6-9 (n=20) were included for blood sampling and received the same treatment as Groups 1-4, respectively. Treatment effects on the growth of tumors were evaluated by tumor growth delay (TGD), which is the difference between median time to endpoint (TTE) tumor size in a treatment group compared to a control group. The effect of these treatments on platelet and erythrocyte precursors was determined from CBC analysis and reticulocyte counts of blood samples taken on Days 10, 13, 21 and 24.
Xenografts were initiated from HT-29 human colon carcinoma xenografts maintained in athymic nude mice. HT-29 tumor fragments (1 mm^3) were implanted subcutaneously into the right flank of each test mouse, and tumor growth was monitored. On Day 1 of the study, the animals were pair-matched into five groups (Groups 1-5) for evaluation of efficacy and four groups for sampling (Groups 6-9). Groups 1-5 each consisted of ten animals with tumor sizes ranging from 75-126 mm^3 and group mean tumor sizes of 99 mm^3. Groups 6-9 each consisted of twenty animals with tumor sizes ranging from 40-221 mm^3 and group mean tumor sizes of 84 mm^3. Tumor weight was estimated with the assumption that 1 mg is equivalent to 1 mm^3 of tumor volume. Volume was calculated using the formula:
Group 1 mice (n=10) were untreated tumor growth controls. Group 2 mice (n=10) received 60 mg/kg carboplatin administered intraperitoneally (i.p.) on Days 1, 2, 12, and 13. Group 3 mice (n=10) received 0.2 mg/kg of the TPO mimetic peptide compound administered intravenously (i.v.) via tail vein on Days 2 and 13. Groups 4 and 5 received the combination of carboplatin (60 mg/kg i.p. on Days 1, 2, 12, and 13) and 0.2 mg/kg of the TPO mimetic peptide compound on Days 2, 13 and Days 2, 13, 23, respectively, administered intravenously (i.v.) one hour after carboplatin dosing. Groups 6-9 (n=20 each) were included for blood sampling and received the same treatments as Groups 1-4, respectively. For all groups, each dose of drug was given in a volume of 0.2 mL per 20 g of body weight (10 mL/kg), and was scaled to the body weight of each animal.
Tumors were measured twice each week using calipers. Each animal was euthanized when its tumor reached the predetermined endpoint size of 1000 mm^3, or on the final day of the study (Day 62), whichever came first. The time to endpoint (TTE) for each mouse was calculated from the following equation: […]
where b is the intercept and m is the slope of the line obtained by linear regression of a log-transformed tumor growth data set. The data set was comprised of the first observation that exceeded the study endpoint volume and the three consecutive observations that immediately preceded the attainment of the endpoint volume.
Treatment outcome was determined from tumor growth delay (TGD), which is defined as the increase in the median time to endpoint (TTE) in a treatment group compared to the control group:
where: • T=median TTE for a treatment group, • C=median TTE for the control group (Group 1)
Treatment may cause partial regression (PR) or complete regression (CR) of the tumor in an animal. In a PR response, the tumor volume is 50% or less of its Day 1 volume for three consecutive measurements during the course of the study, and equal to or greater than 13.5 mm^3 for one or more of these three measurements. In a CR response, the tumor volume is less than 13.5 mm^3 for three consecutive measurements during the course of the study. An animal with a CR response at the termination of a study is additionally classified as a long-term tumor-free survivor (LTTFS). […]
For orientation: In xenograft studies the graft and the host belong to different species.

Data set [3] is described as follows: toxicity / side effects in HT-29 tumor-bearing mice.
From the text: as §1, §2
Data set [4] in a line: Single dose study in healthy subjects: safety, tolerability, antibodies. The class given is in vivo, human. The procedure:
See, e.g., U.S. patent application Ser. No. 11/354,065, filed Feb. 14, 2006, the entire contents of which are incorporated herein by reference.
Single i.v. doses of the TPO mimetic peptide compound up to and including 3 μg/kg were well-tolerated in healthy male subjects, with no apparent drug-related effects on adverse events, or cardiovascular or laboratory safety parameters (excluding platelet counts). Antibodies against the TPO mimetic peptide compound were not apparent in any post dose samples.

Where [5] appears, read: addition of up to 3 cycles to carboplatin therapy.

“Also recorded” adds a separate entry of the source.

For “Methoxypolyethyleneglycol20000-propionyl-L-Isoleucyl-L-Glutamyl-Glycyl-L-Prolyl-L-Threonyl-L-Leucyl-L-Arginyl-L-Glutaminyl-L-2-Naphthylalanyl-L-Leucyl-L-Alanyl-L-Alanyl-L-Arginyl-Sarcosyl-Ne-(methoxypolyethyleneglycol20000-propionyl-L-Isoleucyl-L-Glutamyl-Glycyl-L-Prolyl-L-Threonyl-L-Leucyl-L-Arginyl-L-Glutaminyl-L-2-Naphthylalanyl-L-Leucyl-L-Alanyl-L-Alanyl-L-Arginyl-Sarcosyl-)-Lysinamide [TPO mimetic peptide compound]”, the “treatment-related (TR) deaths” value in data set [1] is on record as “no treatment-related (TR) deaths”. The “TGD (tumor growth delay)” value in data set [2] (Groups 2-4, relative to untreated Group 1, carboplatin 60 mg/kg i.p. Days 1, 2, 12, 13, TPO mimetic peptide compound 0.2 mg/kg i.v. Days 2, 13) came to 8.1 days. The “% Tumor Growth Delay” value in data set [2] (HT-29 xenografts, athymic nude mice, n=10, carboplatin 60 mg/kg i.p. Days 1, 2, 12, 13, TPO mimetic peptide compound 0.2 mg/kg i.v. Days 2, 13, Groups 2-4, vs untreated Group 1) is listed as 33%. Also, the “Median TTE” value in data set [2] (HT-29 xenografts, athymic nude mice, n=10, carboplatin 60 mg/kg i.p. Days 1, 2, 12, 13, TPO mimetic peptide compound 0.2 mg/kg i.v. Days 2, 13, Groups 2-4, endpoint 1000 mm^3) was 32.9 days. Besides, in data set [2] (TPO mimetic peptide compound administration alone), the “effect on tumor growth” value is “did not enhance tumor growth”. Besides, in data set [2] (setting [5]), the “impact on tumor growth delay” value is given as “no negative impact on tumor growth delay” and the “survival compared with carboplatin treatment alone” value was “small increase in survival; also recorded: small advantage in survival”. The “large spleens in necropsied animals” value in data set [3] (Group 3) was “⅖”. Further, the “mean BW losses” value in data set [3] (monotherapy (Group 3)) was “no mean BW losses”. In data set [3] (monotherapy (Group 3), 0.2 mg/kg i.v. Days 2, 13), the tolerability result is on record as “well tolerated”. Also, the safety and tolerability result in data set [4] (healthy male subjects, single i.v. doses 0.375 to 3 μg/kg) was “safe and generally well tolerated”. The “antibodies against the TPO mimetic peptide compound” value in data set [4] (healthy subjects, post dose samples) is “not apparent; also recorded: no evidence of antibody formation”.
